Assays:
Test in all cases: relative viability (nuclei count vs DMSO), 5 days (fraction); higher = more cells survive
IA-LM = system: IA-LM
Summary of the method: (§1)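 For relative viability, nuclei counts in treated wells were divided by those in vehicle wells. Lung cancer cell lines had been pin-tool dosed in 1536-well plates the day after seeding and cultured for 5 days, then fixed and stained in one step (final 0.05% Triton X-100, 1% formaldehyde, 1 ug/ml Hoechst) and imaged at 4×. Doses were one drug alone or a fixed anchor-drug dose plus five library-drug doses (not always all listed) in √10 steps, and values are duplicate-plate medians.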

NCI-H520 = system: NCI-H520
Summary of the method: as §1

EBC-1 = system: EBC-1
Summary of the method: as §1

NCI-H1299 = system: NCI-H1299
Summary of the method: as §1

Calu-6 = system: Calu-6
Summary of the method: as §1

NCI-H838 = system: NCI-H838
Summary of the method: as §1

NCI-H1651 = system: NCI-H1651
Summary of the method: as §1

NCI-H650 = system: NCI-H650
Summary of the method: as §1

NCI-H1703 = system: NCI-H1703
Summary of the method: as §1

RERF-LC-KJ = system: RERF-LC-KJ
Summary of the method: as §1

`CCN(CC)CCCCNc1ncc2cc(-c3cc(OC)cc(OC)c3)c(NC(=O)NC(C)(C)C)nc2n1` + CC(C)C[C@H](NC(=O)[C@H](Cc1ccccc1)NC(=O)c1cnccn1)B(O)O [Bortezomib] (partner 0.002 µM) showed a relative viability (IA-LM; first compound 0.01 µM) of 0.868, a relative viability (IA-LM; first compound 0.03162 µM) of 0.795 and a relative viability (IA-LM; first compound 0.1 µM) of 0.977. For the same molecule, the relative viability (IA-LM; first compound 0.3162 µM) was 0.557, the relative viability (IA-LM; first compound 1 µM) was 0.776 and the relative viability (NCI-H520; first compound 0.01 µM) was 0.787. For the same molecule, the relative viability (NCI-H520; first compound 0.03162 µM) was 0.442, the relative viability (NCI-H520; first compound 0.1 µM) was 0.938 and the relative viability (NCI-H520; first compound 0.3162 µM) was 0.461. For the same molecule, the relative viability (NCI-H520; first compound 1 µM) was 0.244, the relative viability (EBC-1; first compound 0.01 µM) was 0.554 and the relative viability (EBC-1; first compound 0.03162 µM) was 0.599. The relative viability (EBC-1; first compound 0.1 µM) was 0.634, the relative viability (EBC-1; first compound 0.3162 µM) was 0.565 and the relative viability (EBC-1; first compound 1 µM) was 0.458. The relative viability (NCI-H1299; first compound 0.01 µM) was 1.11, the relative viability (NCI-H1299; first compound 0.03162 µM) was 1.02 and the relative viability (NCI-H1299; first compound 0.1 µM) was 1.03. The relative viability (NCI-H1299; first compound 0.3162 µM) was 0.979, the relative viability (NCI-H1299; first compound 1 µM) was 0.954 and the relative viability (Calu-6; first compound 0.01 µM) was 1.01. The relative viability (Calu-6; first compound 0.03162 µM) was 1.11, the relative viability (Calu-6; first compound 0.1 µM) was 1.08 and the relative viability (Calu-6; first compound 0.3162 µM) was 1.11. For the same molecule, the relative viability (Calu-6; first compound 1 µM) was 0.996, the relative viability (NCI-H838; first compound 0.01 µM) was 0.793 and the relative viability (NCI-H838; first compound 0.03162 µM) was 0.732. For the same molecule, the relative viability (NCI-H838; first compound 0.1 µM) was 0.96, the relative viability (NCI-H838; first compound 0.3162 µM) was 0.9 and the relative viability (NCI-H838; first compound 1 µM) was 0.579. For the same molecule, the relative viability (NCI-H1651; first compound 0.01 µM) was 1, the relative viability (NCI-H1651; first compound 0.03162 µM) was 0.94 and the relative viability (NCI-H1651; first compound 0.1 µM) was 1.06. It also gave a relative viability (NCI-H1651; first compound 0.3162 µM) of 1.03, a relative viability (NCI-H1651; first compound 1 µM) of 0.902 and a relative viability (NCI-H650; first compound 0.01 µM) of 0.701. It also gave a relative viability (NCI-H650; first compound 0.03162 µM) of 0.787, a relative viability (NCI-H650; first compound 0.1 µM) of 1.1 and a relative viability (NCI-H650; first compound 0.3162 µM) of 0.921. For the same molecule, the relative viability (NCI-H650; first compound 1 µM) was 0.678, the relative viability (NCI-H1703; first compound 0.01 µM) was 0.343 and the relative viability (NCI-H1703; first compound 0.1 µM) was 0.364. It also gave a relative viability (NCI-H1703; first compound 0.3162 µM) of 0.215, a relative viability (NCI-H1703; first compound 1 µM) of 0.236 and a relative viability (RERF-LC-KJ; first compound 0.01 µM) of 1.17. It also gave a relative viability (RERF-LC-KJ; first compound 0.03162 µM) of 1.15, a relative viability (RERF-LC-KJ; first compound 0.1 µM) of 1.05 and a relative viability (RERF-LC-KJ; first compound 0.3162 µM) of 1.21. It also gave a relative viability (RERF-LC-KJ; first compound 1 µM) of 1.

Work on `O=c1cc(-c2cccc3c2Sc2ccccc2S3)oc(N2CCOCC2)c1` + CC(C)C[C@H](NC(=O)[C@H](Cc1ccccc1)NC(=O)c1cnccn1)B(O)O [Bortezomib] (partner 0.002 µM) yielded a relative viability (IA-LM; first compound 0.08 µM) of 0.833, a relative viability (IA-LM; first compound 0.253 µM) of 0.946 and a relative viability (IA-LM; first compound 0.8 µM) of 0.799. It also gave a relative viability (IA-LM; first compound 2.53 µM) of 0.949, a relative viability (IA-LM; first compound 8 µM) of 0.905 and a relative viability (NCI-H520; first compound 0.08 µM) of 0.679. It also gave a relative viability (NCI-H520; first compound 0.253 µM) of 0.619, a relative viability (NCI-H520; first compound 0.8 µM) of 0.732 and a relative viability (NCI-H520; first compound 2.53 µM) of 0.507. The relative viability (NCI-H520; first compound 8 µM) was 0.604, the relative viability (EBC-1; first compound 0.08 µM) was 0.602 and the relative viability (EBC-1; first compound 0.253 µM) was 0.535. The relative viability (EBC-1; first compound 0.8 µM) was 0.546, the relative viability (EBC-1; first compound 2.53 µM) was 0.424 and the relative viability (EBC-1; first compound 8 µM) was 0.448. For the same molecule, the relative viability (NCI-H1299; first compound 0.08 µM) was 1.02, the relative viability (NCI-H1299; first compound 0.253 µM) was 1.02 and the relative viability (NCI-H1299; first compound 0.8 µM) was 1.05. For the same molecule, the relative viability (NCI-H1299; first compound 2.53 µM) was 0.997, the relative viability (NCI-H1299; first compound 8 µM) was 1.01 and the relative viability (Calu-6; first compound 0.08 µM) was 0.91. The relative viability (Calu-6; first compound 0.253 µM) was 1.02, the relative viability (Calu-6; first compound 0.8 µM) was 1.01 and the relative viability (Calu-6; first compound 2.53 µM) was 0.974. The relative viability (Calu-6; first compound 8 µM) was 0.976, the relative viability (NCI-H838; first compound 0.08 µM) was 0.703 and the relative viability (NCI-H838; first compound 0.253 µM) was 1.05. For the same molecule, the relative viability (NCI-H838; first compound 0.8 µM) was 0.728, the relative viability (NCI-H838; first compound 2.53 µM) was 0.693 and the relative viability (NCI-H838; first compound 8 µM) was 0.588. For the same molecule, the relative viability (NCI-H1651; first compound 0.08 µM) was 0.925, the relative viability (NCI-H1651; first compound 0.253 µM) was 1.08 and the relative viability (NCI-H1651; first compound 0.8 µM) was 0.935. For the same molecule, the relative viability (NCI-H1651; first compound 2.53 µM) was 0.906, the relative viability (NCI-H1651; first compound 8 µM) was 0.964 and the relative viability (NCI-H650; first compound 0.08 µM) was 0.701. The relative viability (NCI-H650; first compound 0.253 µM) was 0.74, the relative viability (NCI-H650; first compound 0.8 µM) was 0.869 and the relative viability (NCI-H650; first compound 2.53 µM) was 0.599. For the same molecule, the relative viability (NCI-H650; first compound 8 µM) was 0.803, the relative viability (NCI-H1703; first compound 0.253 µM) was 0.356 and the relative viability (NCI-H1703; first compound 0.8 µM) was 0.384. The relative viability (NCI-H1703; first compound 2.53 µM) was 0.346, the relative viability (NCI-H1703; first compound 8 µM) was 0.285 and the relative viability (RERF-LC-KJ; first compound 0.08 µM) was 1.04. For the same molecule, the relative viability (RERF-LC-KJ; first compound 0.253 µM) was 1.36, the relative viability (RERF-LC-KJ; first compound 0.8 µM) was 1.22 and the relative viability (RERF-LC-KJ; first compound 2.53 µM) was 1.09. It also gave a relative viability (RERF-LC-KJ; first compound 8 µM) of 1.02.

From the supplement of paper PMC10307832
